Measured values taken from PubChem BioAssay AID1902 (Broad Institute, 2009).
Activity calls are given as the source filed them.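 How the source made its calls: active means EC50 no more than a set limit of log units above the highest dose; inactive means the rest.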

Target: S. pyogenes SKKanGAS, kanamycin survival, BacTiterGlo, 6 h
Assay: SKKanGAS survival reduction under kanamycin, dose response, streptokinase promoter inhibitor project, SKKanGAS strain, luminescence, dose confirmation (AID 1902);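 further: lower survival reflects blocked streptokinase promoter driving kanamycin resistance gene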

Compound	EC50
COc1ccc(NS(=O)(=O)c2cccc(NC(=O)CCC(=O)c3ccc(Cl)cc3)c2)cc1	7.85 µM
COc1ccc(N2CCN(C(=S)NC(=O)c3cccs3)CC2)c([N+](=O)[O-])c1	6.21 µM
C/C(=N\NC(=O)c1cc2ccccc2cc1O)c1ccc2c(c1)OCO2	2.18 µM
Cc1nn(-c2ccccc2)c(Cl)c1/C=N/Nc1ccc(S(=O)(=O)Nc2ccccc2C(=O)O)cc1[N+](=O)[O-]	1.29 µM
CCn1c(C)nc2cc(C(=O)NNC(=S)NC(=O)c3ccc(OC)cc3)ccc21	5.87 µM
O=C(NCc1ccc(F)cc1)C(=O)Nc1nc(C23CC4CC(CC(C4)C2)C3)cs1	0.637 µM
COc1cccc(/C=N/Nc2nc(Nc3ccccc3)nc(-n3nc(C)cc3C)n2)c1O	1.97 µM
CC(=O)Nc1ccc(NC(=O)CSc2nnc(NC(=O)c3ccc(Br)o3)s2)cc1	2.68 µM
c1ccc(N2CCN(c3nc(-c4ccccn4)nc4ccccc34)CC2)cc1	< 0.06 µM
COC(=O)C(Nc1ccccc1Cl)(c1cc(C)c(O)c(C)c1)C(F)(F)F (stereo not drawn)	2.5 µM
COc1cnc(-c2ccccn2)nc1Oc1c(C)cccc1C	0.202 µM
COc1ccc(-c2nc(-c3ccc4c(c3)OCO4)[nH]c2-c2ccc(OC)cc2)cc1	4.71 µM
CCCCNc1c(-c2ccc(SC(C)CC)c(OC)c2)nc2ccc(C)cn12 (stereo not drawn)	3.46 µM
CCc1nnc(NS(=O)(=O)c2ccc(NC(=S)NC(=O)/C=C/c3ccc(C(C)C)cc3)cc2)s1	3.11 µM
Cc1ccc(Cn2nnc3c(=O)[nH]c(C4CCN(S(=O)(=O)c5cc(C)ccc5C)CC4)nc32)cc1	6.26 µM
Cc1ccc(S(=O)(=O)NCC(=O)OCC(=O)N2N=C(c3ccc(Cl)cc3)CC2c2ccco2)cc1C (stereo not drawn)	8.17 µM
Cc1ccccc1OCCCCc1c(C)n[nH]c1C	7.37 µM
C[C@H]1CC[C@@]2(C)[C@@H](CC[C@@H]3[C@@H]2CC[C@]2(C)[C@@H](O)CC[C@@H]32)C1	0.856 µM
O=C(N/N=C/c1cc([N+](=O)[O-])ccc1O)c1cc(-c2ccccc2)nc2ccccc12	0.603 µM
Oc1c(N=NC(=S)Nc2ccccc2F)c2ccccc2n1Cc1cccc(Cl)c1	0.658 µM
Cc1cccc(C)c1Nc1c(-c2ccccn2)nc2ccccn12	6.67 µM
CC(=O)N(CCC(Cc1ccccc1)c1ccc2c(c1)OCO2)Cc1ccc(Cl)cc1 (stereo not drawn)	3.42 µM
c1ccc2c(-c3c[nH]c4ccccc34)c3ccccc3nc2c1	10.9 µM
CCc1c(O)nc(SCC(=O)Nc2nc3ccccc3s2)n(C2CCCCC2)c1=O	8.89 µM
CC(C)Cn1c(N)c(C(=O)NCc2cccs2)c2nc3ccccc3nc21	5.37 µM

Compound	EC50
Cc1noc(C)c1CSc1nc2sc(C)c(C)c2c(=O)n1C1CCCC1	2.94 µM
CCOC(=O)[C@@H]1[C@H]2COc3ccccc3[C@H]2N2C(=O)N(c3ccc(C(F)(F)F)cc3)C(=O)[C@]12C	6.08 µM
Cc1nc(Nc2cnc(/C=C/c3cc(C(=O)Nc4cccc(C(F)(F)F)c4)ccc3C)cn2)cc(N2CCNCC2)n1	6.36 µM
O=c1c2ccccc2oc2cc(-c3ccc4[nH]ccc4c3)ccc12	4.85 µM
COc1ccccc1CCNC(=O)C(=O)c1cn(CC(=O)N2CCCC2)c2ccccc12	> 15 µM (inactive)
CCCCCCCCCCOC(=O)Cn1c(COc2ccccc2OC)[n+](C)c2ccccc21	7.28 µM
Cc1nc(=S)c2c([nH]1)-c1ccccc1CC21CCCCC1	0.945 µM
Cc1ccc(C(=O)N/N=C/c2ccc([N+](=O)[O-])s2)cc1	14 µM
O=C(N/N=C(\c1ccccc1)c1cccnc1)c1cccc(F)c1	3.49 µM
O=C(CSc1ccccn1)N/N=C/c1cc([N+](=O)[O-])ccc1O	1.04 µM
O=C(CNc1ccc2ccccc2c1)N/N=C/c1ccc([N+](=O)[O-])o1	14.3 µM
Cc1cccc(C)c1OCC(O)Cn1c2ccccc2c2ccccc21 (stereo not drawn)	3.83 µM
Cc1ccc2cc(CN(Cc3cccs3)C(=O)c3ccco3)c3nnnn3c2c1C	4.71 µM
CCOc1ccc(NC(=S)NNC(=S)Nc2cccc(C(F)(F)F)c2)cc1	> 15 µM (inactive)
CCOC(=O)CCC(=O)O[C@H]1[C@H](O[C@@H]2[C@@H](C)[C@H](O[C@H]3C[C@@](C)(OC)[C@@H](O)[C@H](C)O3)[C@@H](C)C(=O)O[C@H](CC)[C@@](C)(O)[C@H](O)[C@@H](C)C(=O)[C@H](C)C[C@@]2(C)O)O[C@H](C)C[C@@H]1N(C)C	< 0.06 µM
Cc1cccc(NC(=O)c2ccc(S(=O)(=O)N(C)CC3CCCO3)cc2)c1C (stereo not drawn)	> 15 µM (inactive)
C=CCNC(=S)N/N=C(\C)c1ccccn1	1.76 µM
Cc1cccc(C)c1OCC(O)CN1CCC(CN2C(=O)c3cccc4cccc(c34)C2=O)CC1 (stereo not drawn)	7.35 µM
CS(=O)(=O)c1ccc2nc(NC(=O)c3ccc(NS(=O)(=O)c4cccc([N+](=O)[O-])c4)cc3)sc2c1	1.64 µM
CCn1cc(C(=O)NCc2ccc3c(c2)OCO3)c(=O)c2cc(F)c(N3CCN(C(=O)c4ccco4)CC3)cc21	9.9 µM
C=C(C)COc1ccc(-c2[nH]ncc2Oc2ccc(OC)cc2)c(O)c1	4.05 µM
Cc1cc(Nc2ccccc2)n(-c2nc3ccccc3[nH]2)n1	2.1 µM
Cc1ccc(NC(=S)NC2CCSc3ccccc32)cc1C (stereo not drawn)	4.63 µM
O=C(N/N=C/c1cccc(F)c1)c1c(O)c2ccccc2[nH]c1=O	2.54 µM
C/C(=N\Nc1cc(C)nc(-c2ccccc2O)n1)c1ccccc1O	5.37 µM

Compound	EC50
Nc1nc(-c2ccccn2)nc(N)c1Cc1ccccc1F	15.3 µM
Oc1ccc(-c2nc3c4c(ncn3n2)-c2ccccc2CC42CCCC2)cc1	0.843 µM
CCOc1cccc(/C=N/Nc2ccc(S(=O)(=O)N(CC)CC)cn2)c1O	2.94 µM
Cc1oc(-c2ccc(F)cc2)nc1CN(Cc1ccccn1)CC1CCCO1 (stereo not drawn)	2 µM
OC(COCC(F)(F)C(F)(F)C(F)(F)C(F)F)Cn1c2ccc(Cl)cc2c2cc(Cl)ccc21 (stereo not drawn)	2.16 µM
Cc1ccc(Nc2cc(C)nn2-c2nc(C)cc(=O)[nH]2)cc1	< 0.06 µM
Cc1cc(C(=O)N/N=C/c2cc(Cl)cc([N+](=O)[O-])c2O)c2ccccc2n1	2.61 µM
CCOC(=O)c1sc(NC(=O)CNCc2ccccn2)c(C(=O)OCC)c1C	< 0.06 µM
Cc1ccccc1-c1cc2nc(-c3ccc([N+](=O)[O-])cc3)cc(=O)n2[nH]1	11.9 µM
Cc1ccc(OCCn2c(=S)[nH]c3ccccc32)c(C(C)C)c1	2.13 µM
Cc1cc(N2CCN(c3ccccc3Cl)CC2)n2cc(-c3ccccc3)nc2n1	6.63 µM
O=c1c2cc(Cl)ccc2nc(-c2ccc(Cl)c(Cl)c2)n1O	0.235 µM
CCCCCCCCCCCCOC(=O)C[N+](C)(C)C	3.02 µM
CCOC(=O)c1nc(Nc2ccc(Nc3ccccc3)cc2)c2ccccc2n1	9.84 µM
CC(C)(C)c1nc(NC(=O)Nc2ccccc2)sc1Br	6.3 µM
FC(F)(F)c1cccc(NC(=S)Nc2ccc(Cl)c(Cl)c2)c1	2.45 µM
O=C(NNC(=O)c1cc(-c2ccc(Cl)cc2)nc2ccccc12)c1csc(N2CCOCC2)n1	3.78 µM
Cc1cccc(OCC(=O)Nc2ccc(C(=O)Nc3ccccc3C(=O)O)cc2)c1C	2.41 µM
COc1ccc(C(=O)NNC(=S)NC(=O)c2ccc(Br)o2)cc1OC	0.779 µM
Cc1cc(O)c(NC(=S)NC(=O)c2ccc(-c3ccc(Cl)cc3)o2)cc1C	0.76 µM
Nc1nc(Nc2cccc(Cl)c2)nc(NCc2ccco2)c1[N+](=O)[O-]	7.92 µM
Cc1ccccc1-c1cc(C(=O)Nc2sc(C(=O)OC(C)C)c(C)c2C#N)c2ccccc2n1	5.49 µM
Cc1cccc(C(=O)CC(=O)c2cc(Cl)ccc2O)c1	1.06 µM
